The values below come from publication PMC4890114, “Intracellular quantitative detection of human thymidylate synthase engagement with an unconventional inhibitor using tetracysteine-diarsenical-probe technology” (Scientific Reports, 2016).

The subject of assay [1] is TC-hTS in HEK293T cell lysates. Briefly: FlAsH emission in cell lysates. It is filed as binding, human. As to conditions: excitation 480 nm. The method, then:
HEK293T cells (10 × 10^6) were plated into 150-mm dishes (6 dishes were used for each condition) and transfected the following day with 25 μg of pcDNA-TS or pcDNA-TS-TC using Lipofectamine™ LTX Transfection Reagent; cells were collected 48 h post-transfection in 15-ml tubes and washed twice with 4 °C cold PBS for spectrofluorometric analysis. […]
UV-visible absorption measurements were performed with a Cary 100 Varian spectrophotometer. Fluorescence measurements were carried out with a Horiba Fluoromax-3 spectrofluorometer. […] The fluorescein, hTS dimer and LR-h concentrations were determined spectrophotometrically using the following extinction coefficients: εmax (fluorescein) = 79000 M^−1 cm^−1, ε280 (hTS) = 89000 M^−1 cm^−1, ε280 (fluorescein) = 30000 M^−1 cm^−1,[28] and ε404 (LR-h) = 35000 M^−1 cm^−1, determined ad hoc for this work. The h (420 nm) and F (522 nm) emissions were measured by excitation at 370 or 380 nm. The F emission values were analysed according to the Scatchard method as functions of the LR-h concentration. The amount measured before LR-h addition and due to the direct excitation of F at 370 nm was subtracted from the intensity measured at 522 nm. […] Similar experiments were performed in 800 μl of the lysate of 60 × 10^6 HEK cells to which hTS-F was added to a concentration of 2.5 μM (determined spectrophotometrically). […]

The test system of assay [2] is TC-hTS-transfected HEK293T cells. Briefly: FlAsH-EDT2 staining and confocal imaging of transfected HEK293T cells. It is filed as cell-based, human. The note with it: HEK293T transfected with empty vector, hTS or TC-hTS; 0.5 μM FlAsH, 30 min; confocal microscopy. Here is the method: HEK293T cells (3 × 10^4) were plated into 6-well microslides pre-coated with 0.01% (w/v) poly-L lysine and transfected the following day with 2.5 μg of DNA using Lipofectamine™ LTX Transfection Reagent. After 24 h, cells were labelled for 30 min with 12.5 μM 1,2-ethanedithiol (EDT) and 0.5 μM FlAsH (Life Technologies) in HBSS and then washed twice for 15 min in 150 μM 2,3-dimercaptopropanol (BAL) in HBSS. Cells were fixed with 4% (w/v) paraformaldehyde for 15 min at RT and then imaged using an inverted Leica TCS SP2 confocal microscope interfaced with an Ar Laser (488 nm/20 mW), equipped with AOBS and operated at a magnification of 63x (HCX PL APO 63x/1.40 - oil - Lambda blue correction). Images were processed using LCS Lite (Leica Microsystems, Heidelberg).

For assay [3] the following is noted: complexes of FlAsH with some dodecapeptides including CCPGCC; 'as low as'; read-out: apparent dissociation constant; cited from earlier work. The text has this: According to a strategy devised by Tsien and co-workers, some fluorogenic biarsenicals can covalently bind proteins that contain a tetracysteine motif, CCXXCC, thereby strongly enhancing their emission quantum yield and making such tetracysteine-containing proteins observable within cells. The CCPGCC sequence features a hairpin conformation that optimizes the covalent binding of each As atom of the probe to the S atoms of two cysteine units. Apparent dissociation constants as low as 4 pM have been measured for complexes formed between the fluorescein diarsenical probe FlAsH and some do ...

Assay [4] concerns the target T1, human thymidylate synthase (hTS) (Homo sapiens, UniProt P04818).
T1 construct: inferred from the nickel-resin purification and the pQE80L vector; made in house; host or cells: E. coli DH5α
In words: Kinetic characterization of the hTS enzyme. It is filed as biochemical. The note with it: mTHF 3.50-69.20 μM; enzyme 0.30 μM, dUMP 120 μM; 340 nm; triplicate.
Procedure: The enzyme reaction was started when dUMP was added to the reaction mixture. […] For each single determination assay, the experimental data were analysed in triplicate with a p-value < 0.005 representing statistical significance.

Consider `O=C(O)c1ccccc1-c1c2ccc(=O)c([As]3SCCS3)c-2oc2c([As]3SCCS3)c(O)ccc12` [FlAsH], for which, in assay [1] (after fourth addition, total FlAsH 0.6 μM), the “FlAsH emission, TC-hTS cell lysate versus hTS cell lysate” value was 2.5 times. The “duration of FlAsH emission increase after addition of the probe” value in assay [1] (printed for the hTS-expressing cells) was “approximately forty”. Besides, the green fluorescence enhancement result in assay [2] was “green fluorescence enhancement only in TC-hTS-transfected cells”. For the same compound, in assay [3], the Kd was no less than 4 pM.
What is called Km is the substrate concentration at which the rate is half of its maximum. On to `Nc1nc2c(c(=O)[nH]1)N1CN(c3ccc(C(=O)N[C@@H](CCC(=O)O)C(=O)O)cc3)CC1CN2` (some centres unmarked) [mTHF, 5,10-methylenetetrahydrofolate], for which, in assay [4], the Michaelis-Menten constant (Km) came to 5.87 µM.
